The target in assay [1] is human CB1 receptor (hCB1) (Homo sapiens, UniProt P21554). As to the kind of experiment: cell-based. The assay is classed as cell-based. In short, it runs like this: (§1)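 First, cells in IBMX-containing HEPES-buffered HBSS are raised to elevated cAMP with 2-8 μM NKH-477 for 30 min. Data are normalised to the forskolin and forskolin + 1 μM CP55,940 controls.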
Assay [2] addresses T1, rat CB2 receptor (rCB2) (Rattus norvegicus, UniProt Q9QZN9).
T1 sequence (Q9QZN9 1-360): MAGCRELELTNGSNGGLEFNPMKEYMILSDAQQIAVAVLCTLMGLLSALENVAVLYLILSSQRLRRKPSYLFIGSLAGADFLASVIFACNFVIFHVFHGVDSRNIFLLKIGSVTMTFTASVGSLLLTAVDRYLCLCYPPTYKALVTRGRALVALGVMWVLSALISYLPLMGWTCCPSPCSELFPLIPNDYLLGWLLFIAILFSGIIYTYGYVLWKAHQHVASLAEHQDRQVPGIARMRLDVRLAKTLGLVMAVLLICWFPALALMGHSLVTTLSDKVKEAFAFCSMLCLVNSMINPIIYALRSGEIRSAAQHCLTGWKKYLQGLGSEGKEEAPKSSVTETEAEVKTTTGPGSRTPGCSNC
Nature of the assay: cell-based. Conditions: for +/− RCB2: agonist or inverse agonist at rCB2. The assay is classed as cell-based. An outline of the steps:
as §1

The mark [3] stands for this setting: groups >100 nM-10 μM and >10 μM, cAMP, CHO-K1 hCB1, read-out: EC50 HCB1.

Structures are written as SMILES. Like-named read-outs stand apart in the source and are kept apart here.

Sequence of human CB1 receptor (hCB1) (P21554 whole entry): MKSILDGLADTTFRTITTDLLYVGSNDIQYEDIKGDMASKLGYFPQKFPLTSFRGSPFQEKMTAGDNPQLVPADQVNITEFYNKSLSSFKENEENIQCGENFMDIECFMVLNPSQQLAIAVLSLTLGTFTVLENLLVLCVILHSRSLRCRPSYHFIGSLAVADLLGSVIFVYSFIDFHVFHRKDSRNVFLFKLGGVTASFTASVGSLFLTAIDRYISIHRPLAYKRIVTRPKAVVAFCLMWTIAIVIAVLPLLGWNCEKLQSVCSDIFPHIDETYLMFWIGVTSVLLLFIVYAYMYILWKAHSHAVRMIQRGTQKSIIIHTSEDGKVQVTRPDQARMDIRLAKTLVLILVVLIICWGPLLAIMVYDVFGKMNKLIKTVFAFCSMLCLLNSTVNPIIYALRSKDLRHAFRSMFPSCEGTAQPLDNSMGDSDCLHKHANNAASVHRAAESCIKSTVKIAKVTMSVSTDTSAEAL

In the case of `CC(C)CN1CCn2c(-c3ccccc3)nc(C(=O)NCC3CCOCC3)c2C1` [Compound 167, 7-isobutyl-3-phenyl-N-((tetrahydro-2H-pyran-4-yl)methyl)-5,6,7,8-tetrahydroimidazo[1,5-a]pyrazine-1-carboxamide], the EC50 (usually the concentration needed to bring the measured effect to its halfway point) in assay [1] was above 10000 nM. For the same compound, in assay [2], the “+/− RCB2” value is reported as “−”.

Regarding `CCN1CCn2c(-c3ccccc3)nc(C(=O)NCC3CCOCC3)c2C1` [Compound 168, 7-ethyl-3-phenyl-N-((tetrahydro-2H-pyran-4-yl)methyl)-5,6,7,8-tetrahydroimidazo[1,5-a]pyrazine-1-carboxamide], the EC50 in assay [1] is above 10000 nM. Besides, in assay [2], the “+/− RCB2” value was “−”.

As to `O=C(NCC1CCOCC1)c1nc(-c2ccccc2)n2c1CN(CCO)CC2` [Compound 169, 7-(2-hydroxyethyl)-3-phenyl-N-((tetrahydro-2H-pyran-4-yl)methyl)-5,6,7,8-tetrahydroimidazo[1,5-a]pyrazine-1-carboxamide], the EC50 in assay [1] (setting [3]) is above 10000 nM. Moreover, the “+/− RCB2” value in assay [2] is on record as “−”.

Take `CC(=O)N1CCn2c(-c3ccccc3)nc(C(=O)N[C@H](C)C3CCCCC3)c2C1` [Compound 170, (R)-7-acetyl-N-(1-cyclohexylethyl)-3-phenyl-5,6,7,8-tetrahydro-imidazo[1,5-a]pyrazine-1-carboxamide]: in assay [1], the EC50 was above 10000 nM. Further, the “+/− RCB2” value in assay [2] was “−”.

Compound `CC(C)NC(=O)N1CCn2c(-c3ccccc3)nc(C(=O)NC3C4(C)CCC(C4)C3(C)C)c2C1` (stereo not drawn) [Compound 171, N7-isopropyl-3-phenyl-N1-(1,3,3-trimethylbicyclo[2.2.1]heptan-2-yl)-5,6-dihydroimidazo[1,5-a]pyrazine-1,7(8H)-dicarboxamide] gave a 50% effective concentration (EC50) in assay [1] above 10000 nM. Further, in assay [2], the “+/− RCB2” value is on record as “−”.

As for `CC(=O)N1CCn2c(-c3ccccc3)nc(C(=O)N[C@@H](C)c3ccccc3)c2C1` [Compound 172, (S)-7-acetyl-3-phenyl-N-(1-phenylethyl)-5,6,7,8-tetrahydroimidazo[1,5-a]pyrazine-1-carboxamide], the EC50 in assay [1] was above 10000 nM. Also, in assay [2], the “+/− RCB2” value was “+”.

For the compound `CC(=O)N1CCn2c(-c3ccccc3)nc(C(=O)Nc3ccccc3)c2C1` [Compound 173, 7-acetyl-N,3-diphenyl-5,6,7,8-tetrahydroimidazo[1,5-a]pyrazine-1-carboxamide], the EC50 in assay [1] (setting [3]) is above 10000 nM; in assay [2] (groups >100 nM-10 μM and >10 μM, cAMP, CHO-K1 rCB2, read-out: EC50 RCB2), above 10000 nM.

Turning to `CNC(=O)[C@@H](NC(=O)c1nc(-c2ccccc2)n2c1CN(C(C)=O)CC2)C(C)(C)C` [Compound 174, (S)-7-acetyl-N-(3,3-dimethyl-1-(methylamino)-1-oxobutan-2-yl)-3-phenyl-5,6,7,8-tetrahydroimidazo[1,5-a]pyrazine-1-carboxamide], in assay [1], the EC50 is above 10000 nM. Further, the “+/− RCB2” value in assay [2] is “+”.

`CC(=O)N1CCn2c(-c3ccccc3)nc(C(=O)NN3CCCCC3)c2C1` [Compound 175, 7-acetyl-3-phenyl-N-(piperidin-1-yl)-5,6,7,8-tetrahydroimidazo[1,5-a]pyrazine-1-carboxamide]: the EC50 in assay [1] and in assay [2] was above 10000 nM throughout.

`CC(=O)N1CCn2c(-c3ccccc3)nc(C(=O)NCC3CCOCC3)c2C1` [Compound 176, 7-acetyl-3-phenyl-N-((tetrahydro-2H-pyran-4-yl)methyl)-5,6,7,8-tetrahydroimidazo[1,5-a]pyrazine-1-carboxamide]: the EC50 in assay [1] and in assay [2] was above 10000 nM in each case.

For `CC(=O)N1CCn2c(-c3ccccc3)nc(C(=O)NC3CCCCC3)c2C1` [Compound 177, 7-acetyl-N-cyclohexyl-3-phenyl-5,6,7,8-tetrahydroimidazo[1,5-a]pyrazine-1-carboxamide], in assay [1], the EC50 was above 10000 nM. Further, the “+/− RCB2” value in assay [2] was “−”.

Consider `COC(=O)N1CCn2c(-c3ccccc3)nc(C(=O)NC3C4(C)CCC(C4)C3(C)C)c2C1` (stereo not drawn) [Compound 178, methyl 3-phenyl-1-(1,3,3-trimethylbicyclo[2.2.1]heptan-2-ylcarbamoyl)-5,6-dihydroimidazo[1,5-a]pyrazine-7(8H)-carboxylate], for which the EC50 in assay [1] was above 10000 nM. The “+/− RCB2” value in assay [2] is listed as “−”.

`COC(=O)N1CCn2c(-c3ccccc3)nc(C(=O)N[C@@H](C)c3ccccc3)c2C1` [Compound 179, (S)-methyl 3-phenyl-1-(1-phenylethylcarbamoyl)-5,6-dihydroimidazo[1,5-a]pyrazine-7(8H)-carboxylate] gave an EC50 in assay [1] above 10000 nM. Moreover, in assay [2], the “+/− RCB2” value is listed as “−”.

`CNC(=O)[C@@H](NC(=O)c1nc(-c2ccccc2)n2c1CN(C(=O)OC)CC2)C(C)(C)C` [Compound 180, (S)-methyl 1-(3,3-dimethyl-1-(methylamino)-1-oxobutan-2-ylcarbamoyl)-3-phenyl-5,6-dihydroimidazo[1,5-a]pyrazine-7(8H)-carboxylate]: the EC50 in assay [1] is above 10000 nM. Moreover, the “+/− RCB2” value in assay [2] is reported as “−”.

Consider `COC(=O)N1CCn2c(-c3ccccc3)nc(C(=O)Nc3ccccc3)c2C1` [Compound 181, methyl 3-phenyl-1-(phenylcarbamoyl)-5,6-dihydroimidazo[1,5-a]pyrazine-7(8H)-carboxylate], for which the EC50 in assay [1] (setting [3]) was above 10000 nM. For the same compound, in assay [2], the “+/− RCB2” value is reported as “−”.

In the case of `COC(=O)N1CCn2c(-c3ccccc3)nc(C(=O)NN3CCCCC3)c2C1` [Compound 182, methyl 3-phenyl-1-(piperidin-1-ylcarbamoyl)-5,6-dihydroimidazo[1,5-a]pyrazine-7(8H)-carboxylate], the EC50 in assay [1] (setting [3]) was above 10000 nM. The “+/− RCB2” value in assay [2] is reported as “−”.

In assay [1], `COC(=O)N1CCn2c(-c3ccc(Cl)cc3)nc(C(=O)NCCC(C)C)c2C1` [Compound 183, methyl 3-(4-chlorophenyl)-1-(isopentylcarbamoyl)-5,6-dihydroimidazo[1,5-a]pyrazine-7(8H)-carboxylate] gave an EC50 above 10000 nM. For the same compound, the “+/− RCB2” value in assay [2] is “−”.

For `COC(=O)N1CCn2c(-c3ccc(Cl)cc3)nc(C(=O)N[C@H](CO)C(C)(C)C)c2C1` [Compound 184, (S)-methyl 3-(4-chlorophenyl)-1-(1-hydroxy-3,3-dimethylbutan-2-ylcarbamoyl)-5,6-dihydroimidazo[1,5-a]pyrazine-7(8H)-carboxylate], the EC50 in assay [1] is above 10000 nM. Besides, the “+/− RCB2” value in assay [2] is reported as “−”.

For `COC(=O)N1CCn2c(-c3ccccc3)nc(C(=O)N[C@H](C)C3CCCCC3)c2C1` [Compound 185, (R)-methyl 1-(1-cyclohexylethylcarbamoyl)-3-phenyl-5,6-dihydroimidazo[1,5-a]pyrazine-7(8H)-carboxylate], in assay [1], the EC50 was above 10000 nM. In assay [2], the “+/− RCB2” value was “−”.

In assay [1], `COC(=O)N1CCn2c(-c3ccccc3)nc(C(=O)NCC3CCOCC3)c2C1` [Compound 186, methyl 3-phenyl-1-((tetrahydro-2H-pyran-4-yl)methylcarbamoyl)-5,6-dihydroimidazo[1,5-a]pyrazine-7(8H)-carboxylate] yielded an EC50 above 10000 nM. For the same compound, in assay [2], the “+/− RCB2” value was “−”.

For `COC(=O)N1CCn2c(-c3ccccc3)nc(C(=O)NC3CCCCC3)c2C1` [Compound 187, methyl 1-(cyclohexylcarbamoyl)-3-phenyl-5,6-dihydroimidazo[1,5-a]pyrazine-7(8H)-carboxylate], the EC50 in assay [1] (setting [3]) was above 10000 nM. The “+/− RCB2” value in assay [2] was “−”.

For the origin of these results see US7517874B2 (priority 2007, dated 2009).
